Measured values from the supplement of paper PMC13380429.

Key:
Details in all cases: 72 h
Calu-3 [1] = experiment: relative viability EC50 (midpoint between 100% and the lowest measured viability); higher = less toxic
HepG2 [2] = experiment: as above
U2OS [3] = experiment: as above
Caco-2 [4] = experiment: as above
Vero E6 [5] = experiment: as above
Calu-3 [6] = experiment: cell viability relative to DMSO; higher = less toxic
HepG2 [7] = experiment: as above
U2OS [8] = experiment: as above
Caco-2 [9] = experiment: as above
Vero E6 [10] = experiment: as above
Calu-3 [11] = experiment: drug sensitivity score (DSS) for viability; higher = more toxic; extreme values may be limits of the assay
HepG2 [12] = experiment: as above
U2OS [13] = experiment: as above
Caco-2 [14] = experiment: as above
Vero E6 [15] = experiment: as above

Structure (SMILES): CC(=O)[C@H]1CC[C@H]2[C@@H]3CC[C@H]4C[C@H](O)CC[C@]4(C)[C@H]3C(=O)C[C@]12C [alfaxalone]
- relative viability EC50 (Calu-3 [1]): > 10 µM
- relative viability EC50 (HepG2 [2]): > 10 µM
- relative viability EC50 (U2OS [3]): > 10 µM
- relative viability EC50 (Caco-2 [4]): > 10 µM
- relative viability EC50 (Vero E6 [5]): > 10 µM
- cell viability (Calu-3 [6]; 1 nM): 94.7%
- cell viability (Calu-3 [6]; 10 nM): 99.9%
- cell viability (Calu-3 [6]; 100 nM): 87.7%
- cell viability (Calu-3 [6]; 1000 nM): 97.4%
- cell viability (Calu-3 [6]; 10000 nM): 101%
- cell viability (HepG2 [7]; 1 nM): 98.6%
- cell viability (HepG2 [7]; 10 nM): 102%
- cell viability (HepG2 [7]; 100 nM): 94.1%
- cell viability (HepG2 [7]; 1000 nM): 96.1%
- cell viability (HepG2 [7]; 10000 nM): 106%
- cell viability (U2OS [8]; 1 nM): 97.8%
- cell viability (U2OS [8]; 10 nM): 99.2%
- cell viability (U2OS [8]; 100 nM): 97.7%
- cell viability (U2OS [8]; 1000 nM): 103%
- cell viability (U2OS [8]; 10000 nM): 102%
- cell viability (Caco-2 [9]; 1 nM): 101%
- cell viability (Caco-2 [9]; 10 nM): 101%
- cell viability (Caco-2 [9]; 100 nM): 89.6%
- cell viability (Caco-2 [9]; 1000 nM): 103%
- cell viability (Caco-2 [9]; 10000 nM): 104%
- cell viability (Vero E6 [10]; 1 nM): 99.6%
- cell viability (Vero E6 [10]; 10 nM): 95.9%
- cell viability (Vero E6 [10]; 100 nM): 99.7%
- cell viability (Vero E6 [10]; 1000 nM): 94.3%
- cell viability (Vero E6 [10]; 10000 nM): 107%
- drug sensitivity score (Calu-3 [11]): 0
- drug sensitivity score (HepG2 [12]): 0
- drug sensitivity score (U2OS [13]): 0
- drug sensitivity score (Caco-2 [14]): 0
- drug sensitivity score (Vero E6 [15]): 0

Structure (SMILES): COc1cc(F)c(C(C)C)cc1-c1ccc(C(F)(F)F)cc1CN1C(=O)O[C@H](c2cc(C(F)(F)F)cc(C(F)(F)F)c2)[C@@H]1C [anacetrapib]
- relative viability EC50 (Calu-3 [1]): > 10 µM
- relative viability EC50 (HepG2 [2]): > 10 µM
- relative viability EC50 (U2OS [3]): > 10 µM
- relative viability EC50 (Caco-2 [4]): > 10 µM
- relative viability EC50 (Vero E6 [5]): > 10 µM
- cell viability (Calu-3 [6]; 1 nM): 97.7%
- cell viability (Calu-3 [6]; 10 nM): 97%
- cell viability (Calu-3 [6]; 100 nM): 108%
- cell viability (Calu-3 [6]; 1000 nM): 93.6%
- cell viability (Calu-3 [6]; 10000 nM): 102%
- cell viability (HepG2 [7]; 1 nM): 108%
- cell viability (HepG2 [7]; 10 nM): 103%
- cell viability (HepG2 [7]; 100 nM): 98.2%
- cell viability (HepG2 [7]; 1000 nM): 92.6%
- cell viability (HepG2 [7]; 10000 nM): 98.8%
- cell viability (U2OS [8]; 1 nM): 96.6%
- cell viability (U2OS [8]; 10 nM): 100%
- cell viability (U2OS [8]; 100 nM): 101%
- cell viability (U2OS [8]; 1000 nM): 99.8%
- cell viability (U2OS [8]; 10000 nM): 97.7%
- cell viability (Caco-2 [9]; 1 nM): 98.1%
- cell viability (Caco-2 [9]; 10 nM): 90.8%
- cell viability (Caco-2 [9]; 100 nM): 100%
- cell viability (Caco-2 [9]; 1000 nM): 96.1%
- cell viability (Caco-2 [9]; 10000 nM): 93.8%
- cell viability (Vero E6 [10]; 1 nM): 108%
- cell viability (Vero E6 [10]; 10 nM): 107%
- cell viability (Vero E6 [10]; 100 nM): 97.6%
- cell viability (Vero E6 [10]; 1000 nM): 102%
- cell viability (Vero E6 [10]; 10000 nM): 93.2%
- drug sensitivity score (Calu-3 [11]): 0
- drug sensitivity score (HepG2 [12]): 0
- drug sensitivity score (U2OS [13]): 0
- drug sensitivity score (Caco-2 [14]): 0
- drug sensitivity score (Vero E6 [15]): 0

Structure (SMILES): CN(C)C(=N)NCCC[C@H](N)C(=O)O [asymmetrical-dimethylarginine]
- relative viability EC50 (Calu-3 [1]): > 10 µM
- relative viability EC50 (HepG2 [2]): > 10 µM
- relative viability EC50 (U2OS [3]): > 10 µM
- relative viability EC50 (Caco-2 [4]): > 10 µM
- relative viability EC50 (Vero E6 [5]): > 10 µM
- cell viability (Calu-3 [6]; 1 nM): 107%
- cell viability (Calu-3 [6]; 10 nM): 99.9%
- cell viability (Calu-3 [6]; 100 nM): 112%
- cell viability (Calu-3 [6]; 1000 nM): 102%
- cell viability (Calu-3 [6]; 10000 nM): 97.9%
- cell viability (HepG2 [7]; 1 nM): 86.7%
- cell viability (HepG2 [7]; 10 nM): 96.8%
- cell viability (HepG2 [7]; 100 nM): 95.1%
- cell viability (HepG2 [7]; 1000 nM): 105%
- cell viability (HepG2 [7]; 10000 nM): 101%
- cell viability (U2OS [8]; 1 nM): 100%
- cell viability (U2OS [8]; 10 nM): 93.2%
- cell viability (U2OS [8]; 100 nM): 96.2%
- cell viability (U2OS [8]; 1000 nM): 93.5%
- cell viability (U2OS [8]; 10000 nM): 97%
- cell viability (Caco-2 [9]; 1 nM): 101%
- cell viability (Caco-2 [9]; 10 nM): 99.4%
- cell viability (Caco-2 [9]; 100 nM): 97.9%
- cell viability (Caco-2 [9]; 1000 nM): 93.3%
- cell viability (Caco-2 [9]; 10000 nM): 101%
- cell viability (Vero E6 [10]; 1 nM): 97.4%
- cell viability (Vero E6 [10]; 10 nM): 101%
- cell viability (Vero E6 [10]; 100 nM): 96.5%
- cell viability (Vero E6 [10]; 1000 nM): 101%
- cell viability (Vero E6 [10]; 10000 nM): 90.7%
- drug sensitivity score (Calu-3 [11]): 0
- drug sensitivity score (HepG2 [12]): 0
- drug sensitivity score (U2OS [13]): 0
- drug sensitivity score (Caco-2 [14]): 0
- drug sensitivity score (Vero E6 [15]): 0

Structure (SMILES): CNCC[C@@H](Oc1ccccc1C)c1ccccc1 [atomoxetine]
- relative viability EC50 (Calu-3 [1]): > 10 µM
- relative viability EC50 (HepG2 [2]): > 10 µM
- relative viability EC50 (U2OS [3]): > 10 µM
- relative viability EC50 (Caco-2 [4]): > 10 µM
- relative viability EC50 (Vero E6 [5]): > 10 µM
- cell viability (Calu-3 [6]; 1 nM): 106%
- cell viability (Calu-3 [6]; 10 nM): 104%
- cell viability (Calu-3 [6]; 100 nM): 98.7%
- cell viability (Calu-3 [6]; 1000 nM): 86%
- cell viability (Calu-3 [6]; 10000 nM): 96.3%
- cell viability (HepG2 [7]; 1 nM): 87.3%
- cell viability (HepG2 [7]; 10 nM): 98.5%
- cell viability (HepG2 [7]; 100 nM): 100%
- cell viability (HepG2 [7]; 1000 nM): 104%
- cell viability (HepG2 [7]; 10000 nM): 93.5%
- cell viability (U2OS [8]; 1 nM): 106%
- cell viability (U2OS [8]; 10 nM): 97.5%
- cell viability (U2OS [8]; 100 nM): 101%
- cell viability (U2OS [8]; 1000 nM): 94.8%
- cell viability (U2OS [8]; 10000 nM): 101%
- cell viability (Caco-2 [9]; 1 nM): 99%
- cell viability (Caco-2 [9]; 10 nM): 96.8%
- cell viability (Caco-2 [9]; 100 nM): 98.3%
- cell viability (Caco-2 [9]; 1000 nM): 97.8%
- cell viability (Caco-2 [9]; 10000 nM): 92.8%
- cell viability (Vero E6 [10]; 1 nM): 106%
- cell viability (Vero E6 [10]; 10 nM): 106%
- cell viability (Vero E6 [10]; 100 nM): 102%
- cell viability (Vero E6 [10]; 1000 nM): 106%
- cell viability (Vero E6 [10]; 10000 nM): 99.1%
- drug sensitivity score (Calu-3 [11]): 1.2
- drug sensitivity score (HepG2 [12]): 0
- drug sensitivity score (U2OS [13]): 0
- drug sensitivity score (Caco-2 [14]): 0
- drug sensitivity score (Vero E6 [15]): 0

Structure (SMILES): CN1[C@@H]2CC[C@H]1C[C@@H](OC(=O)c1cc(Cl)cc(Cl)c1)C2 [bemesetron]
- relative viability EC50 (Calu-3 [1]): > 10 µM
- relative viability EC50 (HepG2 [2]): > 10 µM
- relative viability EC50 (U2OS [3]): > 10 µM
- relative viability EC50 (Caco-2 [4]): > 10 µM
- relative viability EC50 (Vero E6 [5]): > 10 µM
- cell viability (Calu-3 [6]; 1 nM): 86.5%
- cell viability (Calu-3 [6]; 10 nM): 87.7%
- cell viability (Calu-3 [6]; 100 nM): 94.5%
- cell viability (Calu-3 [6]; 1000 nM): 94%
- cell viability (Calu-3 [6]; 10000 nM): 95%
- cell viability (HepG2 [7]; 1 nM): 98.7%
- cell viability (HepG2 [7]; 10 nM): 101%
- cell viability (HepG2 [7]; 100 nM): 91.3%
- cell viability (HepG2 [7]; 1000 nM): 107%
- cell viability (HepG2 [7]; 10000 nM): 106%
- cell viability (U2OS [8]; 1 nM): 98.7%
- cell viability (U2OS [8]; 10 nM): 96.7%
- cell viability (U2OS [8]; 100 nM): 101%
- cell viability (U2OS [8]; 1000 nM): 98.7%
- cell viability (U2OS [8]; 10000 nM): 99.7%
- cell viability (Caco-2 [9]; 1 nM): 104%
- cell viability (Caco-2 [9]; 10 nM): 97.8%
- cell viability (Caco-2 [9]; 100 nM): 103%
- cell viability (Caco-2 [9]; 1000 nM): 94.9%
- cell viability (Caco-2 [9]; 10000 nM): 82.2%
- cell viability (Vero E6 [10]; 1 nM): 98.2%
- cell viability (Vero E6 [10]; 10 nM): 103%
- cell viability (Vero E6 [10]; 100 nM): 95.8%
- cell viability (Vero E6 [10]; 1000 nM): 99.5%
- cell viability (Vero E6 [10]; 10000 nM): 104%
- drug sensitivity score (Calu-3 [11]): 0
- drug sensitivity score (HepG2 [12]): 0
- drug sensitivity score (U2OS [13]): 0
- drug sensitivity score (Caco-2 [14]): 1
- drug sensitivity score (Vero E6 [15]): 0
